From US6737383B1, “Herbicidal oxadiazolidines” (priority 1999, dated 2004)

What was measured:
giant foxtail = test: Test B pre/postemergence giant foxtail; assay type: in vivo, Setaria faberii; conditions: for Giant foxtail plant response rating: scale of 0 to 10 where 0 is no effect and 10 is complete control
Summary of the method: (§1)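 Test chemicals in a non-phytotoxic solvent mixture with surfactant were sprayed preemergence onto planted seeds and postemergence onto plants 2 to 18 cm tall (1- to 4-leaf stage). After twelve to sixteen days in a greenhouse, injury was visually rated against untreated controls from 0 (no effect) to 10 (complete control).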

pigweed = test: Test B pre/postemergence pigweed; assay type: in vivo, Amaranthus retroflexus; conditions: for Redroot pigweed plant response rating: scale of 0 to 10 where 0 is no effect and 10 is complete control
Summary of the method: as §1

wild oat = test: Test B pre/postemergence wild oat; assay type: in vivo, Avena fatua; conditions: for Wild oats plant response rating: scale of 0 to 10 where 0 is no effect and 10 is complete control
Summary of the method: as §1

crabgrass = test: Test B pre/postemergence crabgrass; assay type: in vivo, Digitaria sanguinalis; conditions: for Crabgrass plant response rating: scale of 0 to 10 where 0 is no effect and 10 is complete control
Summary of the method: as §1

sugar beet = test: Test B pre/postemergence sugar beet; assay type: in vivo, Beta vulgaris; conditions: for Sugarbeets plant response rating: scale of 0 to 10 where 0 is no effect and 10 is complete control
Summary of the method: as §1

rape = test: Test B pre/postemergence rape; assay type: in vivo, Brassica napus; conditions: for Rape plant response rating: scale of 0 to 10 where 0 is no effect and 10 is complete control
Summary of the method: as §1

purple nutsedge = test: Test B pre/postemergence purple nutsedge; assay type: in vivo, Cyperus rotundus; conditions: for Nutsedge plant response rating: scale of 0 to 10 where 0 is no effect and 10 is complete control
Summary of the method: as §1

corn = test: Test B pre/postemergence corn; assay type: in vivo, Zea mays; conditions: for Corn plant response rating: scale of 0 to 10 where 0 is no effect and 10 is complete control
Summary of the method: as §1

bamyardgrass = test: Test B flood test barnyardgrass; assay type: in vivo, Echinochloa crus-galli
Summary of the method: (§2)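 Read-out is a visual response score from 0 (no effect) to 10 (complete control), assigned by comparison with untreated controls. Treatment was applied at the 2-leaf stage, and plants stayed in the greenhouse for twelve to sixteen days before scoring.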

rice = test: Test B flood test rice; assay type: in vivo, Oryza sativa
Summary of the method: as §2

morningglory = test: Test B pre/postemergence morningglory; assay type: in vivo, Ipomoea hederacea; conditions: for Morningglory plant response rating: scale of 0 to 10 where 0 is no effect and 10 is complete control
Summary of the method: as §1

bedstraw = test: Test B pre/postemergence bedstraw; assay type: in vivo, Galium aparine; conditions: Postemergence
Summary of the method: as §1

cocklebur = test: Test B pre/postemergence cocklebur; assay type: in vivo, Xanthium strumarium; conditions: for Cocklebur plant response rating: scale of 0 to 10 where 0 is no effect and 10 is complete control
Summary of the method: as §1

blackgrass = test: Test B pre/postemergence blackgrass; assay type: in vivo, Alopecurus myosuroides; conditions: for Blackgrass plant response rating: scale of 0 to 10 where 0 is no effect and 10 is complete control
Summary of the method: as §1

wheat = test: Test B pre/postemergence wheat; assay type: in vivo, Triticum aestivum; conditions: for Wheat plant response rating: scale of 0 to 10 where 0 is no effect and 10 is complete control
Summary of the method: as §1

surinam grass = test: Test B pre/postemergence surinam grass; assay type: in vivo, Brachiaria decumbens; conditions: for B. signalgrass plant response rating: scale of 0 to 10 where 0 is no effect and 10 is complete control
Summary of the method: as §1

[1] = Postemergence, Rate 125 g/ha, scale 0 to 10, 0 is no effect, 10 is complete control
[2] = Postemergence, Rate 250 g/ha, scale 0 to 10, 0 is no effect, 10 is complete control
[3] = Preemergence, Rate 62 g/ha, scale 0 to 10 (0 no effect, 10 complete control)
[4] = Rate 500 g/ha, Postemergence, scale 0 to 10, 0 no effect, 10 complete control
[5] = Rate 62 g/ha, flood test species, Pre-emergence, visual evaluation after twelve to sixteen days
[6] = Rate 125 g/ha, under heading Pre-emergence, flood test species, visual evaluation after twelve to sixteen days
[7] = Rate 250 g/ha, Pre-emergence, flood-test species, scale 0 to 10, 0 is no effect, 10 is complete control
[8] = Rate 500 g/ha, Pre-emergence, flood test species, scale 0 to 10 (0 no effect, 10 complete control)

CC(C)N(C(=O)n1oc(=O)n(N2CCOCC2)c1=O)c1ccc(F)cc1F [Compound 384]
Plant response rating, Giant foxtail (giant foxtail; [1]): 8
Plant response rating, Giant foxtail (giant foxtail; [2]): 9
Plant response rating, Giant foxtail (giant foxtail; [3]): 9
Giant foxtail plant response rating (0 to 10 scale) (giant foxtail; Preemergence, Rate 125 g/ha): 10
Giant foxtail plant response rating (giant foxtail; Preemergence, Rate 250 g/ha): 10
Giant foxtail plant response rating (giant foxtail; Preemergence, Rate 500 g/ha): 10
Giant foxtail plant response rating (giant foxtail; Rate 62 g/ha, Postemergence): 4
Plant response rating, Giant foxtail (giant foxtail; [4]): 9
Plant response rating, Redroot pigweed (pigweed; [1]): 0
Plant response rating, Redroot pigweed (pigweed; [2]): 0
Plant response rating, Redroot pigweed (pigweed; [3]): 0
Redroot pigweed plant response rating (0 to 10 scale) (pigweed; Preemergence, Rate 125 g/ha): 0
Redroot pigweed plant response rating (pigweed; Preemergence, Rate 250 g/ha): 0
Redroot pigweed plant response rating (pigweed; Preemergence, Rate 500 g/ha): 0
Redroot pigweed plant response rating (pigweed; Rate 62 g/ha, Postemergence): 0
Plant response rating, Redroot pigweed (pigweed; [4]): 0
Plant response rating, Wild oats (wild oat; [1]): 0
Plant response rating, Wild oats (wild oat; [2]): 0
Plant response rating, Wild oats (wild oat; [3]): 0
Wild oats plant response rating (0 to 10 scale) (wild oat; Preemergence, Rate 125 g/ha): 0
Wild oats plant response rating (wild oat; Preemergence, Rate 250 g/ha): 6
Wild oats plant response rating (wild oat; Preemergence, Rate 500 g/ha): 6
Wild oats plant response rating (wild oat; Rate 62 g/ha, Postemergence): 0
Plant response rating, Wild oats (wild oat; [4]): 4
Plant response rating, Crabgrass (crabgrass; [1]): 7
Plant response rating, Crabgrass (crabgrass; [2]): 8
Plant response rating, Crabgrass (crabgrass; [3]): 6
Crabgrass plant response rating (0 to 10 scale) (crabgrass; Preemergence, Rate 125 g/ha): 6
Crabgrass plant response rating (crabgrass; Preemergence, Rate 250 g/ha): 9
Crabgrass plant response rating (crabgrass; Preemergence, Rate 500 g/ha): 9
Crabgrass plant response rating (crabgrass; Rate 62 g/ha, Postemergence): 1
Plant response rating, Crabgrass (crabgrass; [4]): 8
Plant response rating, Sugarbeets (sugar beet; [1]): 0
Plant response rating, Sugarbeets (sugar beet; [2]): 0
Plant response rating, Sugarbeets (sugar beet; [3]): 0
Sugarbeets plant response rating (0 to 10 scale) (sugar beet; Preemergence, Rate 125 g/ha): 0
Sugarbeets plant response rating (sugar beet; Preemergence, Rate 250 g/ha): 0
Sugarbeets plant response rating (sugar beet; Preemergence, Rate 500 g/ha): 2
Sugarbeets plant response rating (sugar beet; Rate 62 g/ha, Postemergence): 0
Plant response rating, Sugarbeets (sugar beet; [4]): 0
Plant response rating, Rape (rape; [1]): 0
Plant response rating, Rape (rape; [2]): 0
Plant response rating, Rape (rape; [3]): 0
Rape plant response rating (0 to 10 scale) (rape; Preemergence, Rate 125 g/ha): 0
Rape plant response rating (rape; Preemergence, Rate 250 g/ha): 0
Rape plant response rating (rape; Preemergence, Rate 500 g/ha): 0
Rape plant response rating (rape; Rate 62 g/ha, Postemergence): 0
Plant response rating, Nutsedge (purple nutsedge; [1]): 0
Plant response rating, Nutsedge (purple nutsedge; [2]): 0
Plant response rating, Nutsedge (purple nutsedge; [3]): 0
Nutsedge plant response rating (0 to 10 scale) (purple nutsedge; Preemergence, Rate 125 g/ha): 0
Nutsedge plant response rating (purple nutsedge; Preemergence, Rate 250 g/ha): 0
Nutsedge plant response rating (purple nutsedge; Preemergence, Rate 500 g/ha): 0
Nutsedge plant response rating (purple nutsedge; Rate 62 g/ha, Postemergence): 0
Plant response rating, Nutsedge (purple nutsedge; [4]): 0
Plant response rating, Corn (corn; [1]): 0
Plant response rating, Corn (corn; [2]): 0
Plant response rating, Corn (corn; [3]): 0
Corn plant response rating (corn; Preemergence, Rate 500 g/ha): 5
Corn plant response rating (corn; Rate 62 g/ha, Postemergence): 0
Plant response rating, Corn (corn; [4]): 0
Plant response rating, Barnyardgrass (0 to 10 scale, 0 is no effect, 10 is complete control) (bamyardgrass; [5]): 0
Barnyardgrass plant response rating (0 to 10 scale, 0 is no effect, 10 is complete control) (bamyardgrass; [6]): 0
Barnyardgrass plant response rating (bamyardgrass; [7]): 0
Barnyardgrass plant response rating (bamyardgrass; [8]): 0
Plant response rating, Rice (0 to 10 scale, 0 is no effect, 10 is complete control) (rice; [5]): 0
Rice plant response rating (0 to 10 scale, 0 is no effect, 10 is complete control) (rice; [6]): 0
Rice plant response rating (rice; [7]): 0
Rice plant response rating (rice; [8]): 0
Plant response rating, Morningglory (morningglory; [1]): 0
Plant response rating, Morningglory (morningglory; [2]): 0
Plant response rating, Morningglory (morningglory; [3]): 0
Morningglory plant response rating (0 to 10 scale) (morningglory; Preemergence, Rate 125 g/ha): 0
Morningglory plant response rating (morningglory; Preemergence, Rate 250 g/ha): 0
Morningglory plant response rating (morningglory; Preemergence, Rate 500 g/ha): 2
Morningglory plant response rating (morningglory; Rate 62 g/ha, Postemergence): 0
Plant response rating, Morningglory (morningglory; [4]): 0
Plant response rating, Bedstraw (bedstraw; Rate 125 g/ha, scale 0 to 10, 0 is no effect, 10 is complete control): 0
Plant response rating, Bedstraw (bedstraw; Rate 250 g/ha, scale 0 to 10, 0 is no effect, 10 is complete control): 0
Bedstraw plant response rating (bedstraw; Rate 62 g/ha, scale of 0 to 10 where 0 is no effect and 10 is complete control): 0
Plant response rating, Bedstraw (bedstraw; Rate 500 g/ha, scale 0 to 10, 0 no effect, 10 complete control): 0
Plant response rating, Cocklebur (cocklebur; [1]): 0
Plant response rating, Cocklebur (cocklebur; [2]): 0
Plant response rating, Cocklebur (cocklebur; [3]): 0
Cocklebur plant response rating (0 to 10 scale) (cocklebur; Preemergence, Rate 125 g/ha): 0
Cocklebur plant response rating (cocklebur; Preemergence, Rate 250 g/ha): 0
Cocklebur plant response rating (cocklebur; Preemergence, Rate 500 g/ha): 0
Cocklebur plant response rating (cocklebur; Rate 62 g/ha, Postemergence): 0
Plant response rating, Cocklebur (cocklebur; [4]): 0
Plant response rating, Blackgrass (blackgrass; [1]): 4
Plant response rating, Blackgrass (blackgrass; [2]): 9
Plant response rating, Blackgrass (blackgrass; [3]): 0
Blackgrass plant response rating (0 to 10 scale) (blackgrass; Preemergence, Rate 125 g/ha): 0
Blackgrass plant response rating (blackgrass; Preemergence, Rate 250 g/ha): 3
Blackgrass plant response rating (blackgrass; Preemergence, Rate 500 g/ha): 7
Blackgrass plant response rating (blackgrass; Rate 62 g/ha, Postemergence): 3
Plant response rating, Wheat (wheat; [1]): 0
Plant response rating, Wheat (wheat; [2]): 2
Plant response rating, Wheat (wheat; [3]): 0
Wheat plant response rating (0 to 10 scale) (wheat; Preemergence, Rate 125 g/ha): 0
Wheat plant response rating (wheat; Preemergence, Rate 250 g/ha): 2
Wheat plant response rating (wheat; Preemergence, Rate 500 g/ha): 3
Wheat plant response rating (wheat; Rate 62 g/ha, Postemergence): 0
Plant response rating, Wheat (wheat; [4]): 3
Plant response rating, B. signalgrass (surinam grass; [1]): 3
Plant response rating, B. signalgrass (surinam grass; [2]): 6
Plant response rating, B. signalgrass (surinam grass; [3]): 0
B. signalgrass plant response rating (0 to 10 scale, 0 is no effect, 10 is complete control) (surinam grass; Preemergence, Rate 125 g/ha): 0
B. signalgrass plant response rating (surinam grass; Preemergence, Rate 250 g/ha): 3
B. signalgrass plant response rating (surinam grass; Preemergence, Rate 500 g/ha): 7
B. signalgrass plant response rating (surinam grass; Rate 62 g/ha, Postemergence): 0
Plant response rating, B. signalgrass (surinam grass; [4]): 7
